Numbered stars: 1 amine (or outer) side, 2 acyl side, 3 side chain; on linkers, the order of the positions; unused ones are H or OH. Bridge positions count the residues as written; N and C are the ends. Square brackets hold non-standard residues; d marks the D form. Peptide text beside a SMILES is read from it. * marks the point of attachment. ξ: configuration not given here. Phe(4-CONH2) = NC(=O)c1ccc(C[C@H](N)C(=O)O)cc1; Phe(4-COOH) = N[C@@H](Cc1ccc(C(=O)O)cc1)C(=O)O; X27 = O=C([C@H](Cc1ccc2ncccc2c1)N[*:1])[*:2]; Bip = N[C@@H](Cc1ccc(-c2ccccc2)cc1)C(=O)O; Phe(4-CN) = N#Cc1ccc(C[C@H](N)C(=O)O)cc1; Phe(3-Me) = Cc1cccc(C[C@H](N)C(=O)O)c1; Phe(2-F) = N[C@@H](Cc1ccccc1F)C(=O)O; Val(3-OH) = CC(C)(O)[C@H](N)C(=O)O; NMePhg = CN[C@H](C(=O)O)c1ccccc1; Cha = N[C@@H](CC1CCCCC1)C(=O)O; Cit = NC(=O)NCCC[C@H](N)C(=O)O; Ile(3ξ) = CCC(C)[C@H](N)C(=O)O; Thr(3ξ) = CC(O)[C@H](N)C(=O)O; Carboxymethyl = O=C(O)C*; NMeA = CN[C@@H](C)C(=O)O; Dab = NCC[C@H](N)C(=O)O; Dap = NC[C@H](N)C(=O)O; ξC = NC(CS)C(=O)O
Each molecule was assayed against T1, PE-labeled human PD-L1-Ig binding to Jurkat cell line over-expressing human PD-1 (Jurkat-PD-1) (Homo sapiens, UniProt Q15116) (assay: Jurkat-PD-1 Cell Binding High-Content Screening Assay (CBA): Method 1). Details: Jurkat-hPD-1 cells, PE-labeled PD-L1-Ig 20 nM final; read-out: Jurkat HPDL1 PD1 IC50 (uM) (Method 1).
T1 construct: expressed in transfected cells; host or cells: Jurkat
T1 sequence (Q15116 25-288): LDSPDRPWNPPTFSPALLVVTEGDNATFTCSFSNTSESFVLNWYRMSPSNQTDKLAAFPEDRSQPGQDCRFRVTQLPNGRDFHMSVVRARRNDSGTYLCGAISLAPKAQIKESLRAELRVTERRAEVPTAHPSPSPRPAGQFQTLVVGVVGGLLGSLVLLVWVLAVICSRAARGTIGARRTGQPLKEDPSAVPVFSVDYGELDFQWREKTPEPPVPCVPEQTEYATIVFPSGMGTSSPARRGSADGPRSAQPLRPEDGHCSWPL

SMILES | IC50 [µM]
CC(C)C[C@@H]1NC(=O)[C@H](CCN)NC(=O)[C@@H](CC(C)C)NC(=O)[C@H](C)N(C)C(=O)[C@H](Cc2cnc[nH]2)NC(=O)[C@H](Cc2ccc(-c3ccccc3)cc2)NC(=O)[C@H](C(C)C)NC(=O)[C@H](Cc2c[nH]c3ccccc23)NC(=O)[C@H](CC(=O)O)NC(=O)[C@H](Cc2ccccc2F)NC(=O)[C@H](CN)NC(=O)CSC[C@@H](C(=O)N[C@@H](C)C(N)=O)NC(=O)[C@H]([C@@H](C)O)NC(=O)[C@H](C(C)C)NC1=O [Compound 1425] ({CH2CO}-[Dap][Phe(2-F)]DWV[Bip]H[NMeA][dL][Dab]LVTCA-NH2; thioether N-14) | 0.14
CCC(C)[C@@H]1NC(=O)[C@H](Cc2ccc(-c3ccccc3)cc2)NC(=O)[C@H](C(C)C)NC(=O)[C@H](Cc2c[nH]c3ccccc23)NC(=O)[C@H](CC(=O)O)NC(=O)[C@H](Cc2ccc(O)cc2)NC(=O)[C@H](CC(N)=O)NC(=O)CSCC(C(=O)NCC(=O)N[C@@H](CCN)C(=O)O)NC(=O)[C@H](C(C)O)NC(=O)[C@H](C(C)C)NC(=O)[C@H](CC2CCCCC2)NC(=O)[C@H](CC(N)=O)NC(=O)[C@@H](CC(C)C)NC(=O)[C@H](C)N(C)C1=O (stereo partly drawn) [Compound 2003] ({CH2CO}-NYDWV[Bip][Ile(3ξ)][NMeA][dL]N[Cha]V[Thr(3ξ)][ξC]G[Dab]-OH; thioether N-14) | 0.02
CC[C@H](C)[C@@H]1NC(=O)[C@H](Cc2ccc(-c3ccccc3)cc2)NC(=O)[C@H](C(C)(C)O)NC(=O)[C@H](Cc2cccc(C)c2)NC(=O)[C@H](CC(=O)O)NC(=O)[C@H](Cc2ccc(O)cc2)NC(=O)[C@H](CC(N)=O)NC(=O)CSC[C@@H](C(=O)N[C@@H](CCN)C(N)=O)NC(=O)[C@H]([C@@H](C)O)NC(=O)[C@H](C(C)(C)O)NC(=O)[C@H](CC2CCCCC2)NC(=O)[C@H](CCN)NC(=O)[C@@H](CC(C)C)NC(=O)[C@H](C)N(C)C1=O [Compound 1693] ({CH2CO}-NYD[Phe(3-Me)][Val(3-OH)][Bip]I[NMeA][dL][Dab][Cha][Val(3-OH)]TC[Dab]-NH2; thioether N-14) | 0.02
Cc1cccc(C[C@@H]2NC(=O)[C@H](CC(=O)O)NC(=O)[C@H](Cc3ccc(C(=O)O)cc3)NC(=O)[C@H](Cc3ccc(OCC(=O)O)cc3)NC(=O)CSC[C@@H](C(=O)N[C@@H](C)C(N)=O)NC(=O)[C@H](CO)NC(=O)[C@H](C(C)C)NC(=O)[C@H](CC(C)C)NC(=O)[C@H](CC(N)=O)NC(=O)[C@@H](C)NC(=O)[C@H](C)N(C)C(=O)[C@H](C(C)C)NC(=O)[C@H](Cc3ccc(-c4ccccc4)cc3)NC(=O)[C@H](CC(C)C)NC2=O)c1 [Compound 1579] ({CH2CO}-Y(Carboxymethyl)[Phe(4-COOH)]D[Phe(3-Me)]L[Bip]V[NMeA][dA]NLVSCA-NH2; thioether N-14) | 0.02
CC(C)C[C@@H]1NC(=O)[C@H](CCN)NC(=O)[C@@H](CC(C)C)NC(=O)[C@H](c2ccccc2)N(C)C(=O)[C@H](C(C)C)NC(=O)[C@H](Cc2ccc(-c3ccccc3)cc2)NC(=O)[C@H](C(C)C)NC(=O)[C@H](Cc2c[nH]c3ccccc23)NC(=O)[C@H](CC(=O)O)NC(=O)[C@H](Cc2ccc(O)cc2)NC(=O)[C@H](CC(N)=O)NC(=O)CSC[C@@H](C(=O)N[C@@H](C)C(N)=O)NC(=O)[C@H]([C@@H](C)O)NC(=O)[C@H](C(C)C)NC1=O [Compound 1366] ({CH2CO}-NYDWV[Bip]V[NMePhg][dL][Dab]LVTCA-NH2; thioether N-14) | 0.03
CCC(C)[C@@H]1NC(=O)[C@H](Cc2ccc(-c3ccccc3)cc2)NC(=O)[C@H](C(C)C)NC(=O)[C@H](Cc2c[nH]c3ccccc23)NC(=O)[C@H](CC(=O)O)NC(=O)[C@H](Cc2ccc(O)cc2)NC(=O)[C@H](Cc2ccc3ncccc3c2)NC(=O)CSC[C@@H](C(=O)N[C@@H](C)C(N)=O)NC(=O)[C@H](C(C)O)NC(=O)[C@H](C(C)C)NC(=O)[C@H](CC2CCCCC2)NC(=O)[C@H](CCN)NC(=O)[C@@H](CC(C)C)NC(=O)[C@H](C)N(C)C1=O (stereo partly drawn) [Compound 2045] ({CH2CO}-[X27]YDWV[Bip][Ile(3ξ)][NMeA][dL][Dab][Cha]V[Thr(3ξ)]CA-NH2; thioether N-14) | 0.01
CC(C)C[C@@H]1NC(=O)[C@H](CCN)NC(=O)[C@@H](CC(C)C)NC(=O)[C@H](C)N(C)C(=O)[C@H](Cc2cnc[nH]2)NC(=O)[C@H](Cc2ccc(-c3ccccc3)cc2)NC(=O)[C@H](C(C)C)NC(=O)[C@H](Cc2c[nH]c3ccccc23)NC(=O)[C@H](CC(=O)O)NC(=O)[C@H](Cc2ccc(C#N)cc2)NC(=O)[C@H](CN)NC(=O)CSC[C@@H](C(=O)N[C@@H](C)C(N)=O)NC(=O)[C@H]([C@@H](C)O)NC(=O)[C@H](C(C)C)NC1=O [Compound 1433] ({CH2CO}-[Dap][Phe(4-CN)]DWV[Bip]H[NMeA][dL][Dab]LVTCA-NH2; thioether N-14) | 0.16
Cc1cccc(C[C@@H]2NC(=O)[C@H](CC(=O)O)NC(=O)[C@H](Cc3ccc(OCC(=O)O)cc3)NC(=O)[C@H](C(C)O)NC(=O)CSC[C@@H](C(=O)N[C@@H](CO)C(N)=O)NC(=O)[C@H](CO)NC(=O)[C@H](C(C)(C)O)NC(=O)[C@H](CC3CCCCC3)NC(=O)[C@H](CCN)NC(=O)[C@@H](CC(C)C)NC(=O)[C@H](C)N(C)C(=O)[C@H](Cc3ccc(C(=O)O)cc3)NC(=O)[C@H](Cc3ccc(-c4ccccc4)cc3)NC(=O)[C@H](Cc3ccc(C(N)=O)cc3)NC2=O)c1 (stereo partly drawn) [Compound 2181] ({CH2CO}-[Thr(3ξ)]Y(Carboxymethyl)D[Phe(3-Me)][Phe(4-CONH2)][Bip][Phe(4-COOH)][NMeA][dL][Dab][Cha][Val(3-OH)]SCS-NH2; thioether N-14) | 0.05
Cc1cccc(C[C@@H]2NC(=O)[C@H](CC(=O)O)NC(=O)[C@H](Cc3ccc(O)cc3)NC(=O)[C@H](CC(N)=O)NC(=O)CSC[C@@H](C(N)=O)NC(=O)[C@H]([C@@H](C)O)NC(=O)[C@H](C(C)C)NC(=O)[C@H](CC(C)C)NC(=O)[C@H](CCN)NC(=O)[C@@H](CC(C)C)NC(=O)[C@H](C)N(C)C(=O)[C@H](C(C)C)NC(=O)[C@H](Cc3ccc(-c4ccccc4)cc3)NC(=O)[C@H](C(C)C)NC2=O)c1 [Compound 1637] ({CH2CO}-NYD[Phe(3-Me)]V[Bip]V[NMeA][dL][Dab]LVTC-NH2; thioether N-14) | 0.15
CC(C)C[C@@H]1NC(=O)[C@H](Cc2c[nH]c3ccccc23)NC(=O)[C@H](CC(=O)O)NC(=O)[C@H](Cc2ccc(O)cc2)NC(=O)[C@H](Cc2ccccc2)NC(=O)CSC[C@@H](C(=O)N[C@@H](C)C(N)=O)NC(=O)[C@H](CO)NC(=O)[C@H](C(C)C)NC(=O)[C@H](CC(C)C)NC(=O)[C@H](CC(N)=O)NC(=O)[C@@H](Cc2ccccc2)NC(=O)[C@H](C)N(C)C(=O)[C@H](C(C)C)NC(=O)[C@H](Cc2ccc(-c3ccccc3)cc2)NC1=O [Compound 1783] ({CH2CO}-FYDWL[Bip]V[NMeA][dF]NLVSCA-NH2; thioether N-14) | 0.09
CC(C)C[C@@H]1NC(=O)[C@H](Cc2c[nH]c3ccccc23)NC(=O)[C@H](CC(=O)O)NC(=O)[C@H](Cc2ccc(C(=O)O)cc2)NC(=O)[C@H](Cc2ccc(OCC(=O)O)cc2)NC(=O)CSC[C@@H](C(N)=O)NC(=O)[C@H](CO)NC(=O)[C@H](C(C)C)NC(=O)[C@H](CC2CCCCC2)NC(=O)[C@H](CCN)NC(=O)[C@@H](CC(C)C)NC(=O)[C@H](C)N(C)C(=O)[C@H](CCCNC(N)=O)NC(=O)[C@H](Cc2ccc(-c3ccccc3)cc2)NC1=O [Compound 1636] ({CH2CO}-Y(Carboxymethyl)[Phe(4-COOH)]DWL[Bip][Cit][NMeA][dL][Dab][Cha]VSC-NH2; thioether N-14) | 0.01

From patent US20240409585A1, “MACROCYCLIC IMMUNOMODULATORS” (priority 2021, published 2024)
